Results reported in publication PMC11589570, “Critical assessment of LC3/GABARAP ligands used for degrader development and ligandability of LC3/GABARAP binding pockets” (Nature Communications, 2024).
“And” between values parts separate entries of the source, which are not always exact repeats. Identical values can stand only once.

Assays:
[1] = target: LC3A (Homo sapiens, UniProt Q9H492); assay: FP assay with 10O5- and 8F20-based dye-linked tracers 16 and 17; settings: for Fluorescence polarization, protein titration LC3A with tween / Fluorescence polarization, protein titration LC3A without tween: replicates; for Fluorescence polarization, displacement experiment LC3A: competing compound not named, duplicates
[2] = target: LC3B (Homo sapiens, UniProt Q9GZQ8); assay: as above; settings: for Fluorescence polarization, protein titration LC3B with tween / Fluorescence polarization, protein titration LC3B without tween: replicates; for Fluorescence polarization, displacement experiment LC3B: competing compound not named, duplicates
From the text: The only experimental difference in our FP assay setup was the addition of 0.05% Tween-20, which is routinely used[27] to suppress unspecific binding of compounds to proteins.
Fluorescence polarization assay utilizing tracers 16 and 17 for interaction studies with LC3A
(upper panels) and LC3B (lower panels). The left panels depict protein titration measurements
detergent in the buffer to suppress unspecific binding. Middle panels depict displacement
Data were collected in technical
triplicates with error bars expressing the SD (n=3).

[3] = target: T1, NanoLuc-fusion full-length LC3B (Homo sapiens, UniProt Q9GZQ8); assay: NanoBRET cellular target engagement assay in HEK293T cells; assay type: cell-based; settings: NanoLuciferase-tagged LC3B, replicates
T1 construct: a fluorescent donor (in this case full length LC3A and LC3B); expressed in transfected cells; host or cells: HEK293T (ATCC; CRL-11268)
Experimental: (§1) NanoBRET cellular target engagement assay: Constructs contained the cDNA of full-length LC3A and LC3B cloned in frame with an N-terminal NanoLuc-fusion. Plasmids were transfected into HEK293T (ATCC; CRL-11268) cells using FuGENE HD (Promega, E2312) and proteins were allowed to express for 20 h. 10O5 and 8F20-based tracers were titrated to the protein as depicted in Supplementary Fig. 4d. For competition experiments, 1 µM of the tracers was pipetted into white 384-well plates (Greiner 781 207) using an Echo 550 acoustic dispenser (Labcyte) containing LC3A/LC3B expressing transfected cells at a density of 2.5 × 10^5 cells/mL in Opti-MEM without phenol red (Life Technologies). The system was allowed to equilibrate for 2 h at 37 °C and 5% CO2 prior to BRET measurements. To measure BRET, NanoBRET NanoGlo Substrate + Extracellular NanoLuc Inhibitor (Promega, N2540) was added as per the manufacturer’s protocol, and filtered luminescence was measured on a PHERAstar plate reader (BMG Labtech) equipped with a luminescence filter pair (450 nm BP filter (donor) and 610 nm LP filter (acceptor)). Competitive displacement data were then plotted using GraphPad Prism 9.3 software using a normalized 3-parameter curve fit. A detailed step-by-step protocol for this assay is described in Schwalm..

[4] = target: T2, NanoLuc-fusion full-length LC3A (Homo sapiens, UniProt Q9H492); assay: as above; assay type: cell-based; settings: NanoLuciferase-tagged LC3A, replicates
T2 construct: a fluorescent donor (in this case full length LC3A and LC3B); expressed in transfected cells; host or cells: HEK293T (ATCC; CRL-11268)
Experimental: as §1

O=C(CCC1=[N+]2C(=Cc3ccc(-c4ccc[nH]4)n3[B-]2(F)F)C=C1)NCCCOCCOCCOCCCNC(=O)COc1c(Br)cc(C=C2C(=O)Nc3ccc(I)cc32)cc1Br (mixture of isomers) [Tracer 16]
Fluorescence polarization, protein titration LC3A with tween ([1]; Protein 0.1 µM): 17 and 27 and 22 and 26
Fluorescence polarization, protein titration LC3A without tween ([1]; Protein 0.1 µM): 141 and 128 and 122 and 148
Fluorescence polarization, protein titration LC3A with tween ([1]; Protein 0.25 µM): 23 and 27 (2×) and 19
Fluorescence polarization, protein titration LC3A without tween ([1]; Protein 0.25 µM): 184 and 161 and 131 and 173
Fluorescence polarization, protein titration LC3A with tween ([1]; Protein 0.5 µM): 22 and 18 and 24 and 23
Fluorescence polarization, protein titration LC3A without tween ([1]; Protein 0.5 µM): 214 and 168 and 152 and 148
Fluorescence polarization, protein titration LC3A with tween ([1]; Protein 1 µM): 36 and 25 and 24 and 27
Fluorescence polarization, protein titration LC3A without tween ([1]; Protein 1 µM): 178 and 174 and 173 and 142
Fluorescence polarization, protein titration LC3A with tween ([1]; Protein 5 µM): 23 and 19 and 21 and 25
Fluorescence polarization, protein titration LC3A without tween ([1]; Protein 5 µM): 196 and 185 and 203 and 124
Fluorescence polarization, protein titration LC3A with tween ([1]; Protein 10 µM): 18 and 19 and 20 and 25
Fluorescence polarization, protein titration LC3A without tween ([1]; Protein 10 µM): 234 and 191 and 193 and 156
Fluorescence polarization, protein titration LC3A with tween ([1]; Protein 25 µM): 18 and 17 and 26 and 19
Fluorescence polarization, protein titration LC3A with tween ([1]; Protein 50 µM): 29 and 17 and 28 and 31
Fluorescence polarization, protein titration LC3A without tween ([1]; Protein 50 µM): 218 and 219 and 177 and 165
Fluorescence polarization, displacement experiment LC3A ([1]; log Compound [M] -4.6031): 87.7778 and 70
Fluorescence polarization, displacement experiment LC3A ([1]; log Compound [M] -5.05839): 106.667 and 93.3333
Fluorescence polarization, displacement experiment LC3A ([1]; log Compound [M] -5.42608): 111.111 and 106.667
Fluorescence polarization, displacement experiment LC3A ([1]; log Compound [M] -5.727): 116.667 and 108.889
Fluorescence polarization, displacement experiment LC3A ([1]; log Compound [M] -6.20412): 80 and 87.7778
Fluorescence polarization, displacement experiment LC3A ([1]; log Compound [M] -6.6031): 94.4444 and 87.7778
Fluorescence polarization, displacement experiment LC3A ([1]; log Compound [M] -7.05839): 96.6667 and 90
Fluorescence polarization, displacement experiment LC3A ([1]; log Compound [M] -7.42608): 98.8889 and 88.8889
Fluorescence polarization, displacement experiment LC3A ([1]; log Compound [M] -7.727): 95.5556 and 110
Fluorescence polarization, displacement experiment LC3A ([1]; log Compound [M] -8.20412): 83.3333 and 101.111
Fluorescence polarization, displacement experiment LC3A ([1]; log Compound [M] -8.60189): 82.2222 and 100
Fluorescence polarization, protein titration LC3B with tween ([2]; Protein 0.1 µM): 14 and 24 and 21 and 25
Fluorescence polarization, protein titration LC3B without tween ([2]; Protein 0.1 µM): 191 and 155 and 157 and 173
Fluorescence polarization, protein titration LC3B with tween ([2]; Protein 0.25 µM): 30 and 20 (2×) and 28
Fluorescence polarization, protein titration LC3B without tween ([2]; Protein 0.25 µM): 187 and 186 and 175 and 167
Fluorescence polarization, protein titration LC3B with tween ([2]; Protein 0.5 µM): 23 and 18 and 30 and 16
Fluorescence polarization, protein titration LC3B without tween ([2]; Protein 0.5 µM): 191 and 197 and 195 and 171
Fluorescence polarization, protein titration LC3B with tween ([2]; Protein 1 µM): 18 and 20 and 17 and 25
Fluorescence polarization, protein titration LC3B without tween ([2]; Protein 1 µM): 223 and 203 and 198 and 217
Fluorescence polarization, protein titration LC3B with tween ([2]; Protein 5 µM): 24 (2×) and 19 and 17
Fluorescence polarization, protein titration LC3B without tween ([2]; Protein 5 µM): 203 and 175 and 213 and 191
Fluorescence polarization, protein titration LC3B with tween ([2]; Protein 10 µM): 26 and 22 and 24 and 28
Fluorescence polarization, protein titration LC3B without tween ([2]; Protein 10 µM): 222 and 196 and 207 and 175
Fluorescence polarization, protein titration LC3B with tween ([2]; Protein 25 µM): 25 and 29 and 18 and 31
Fluorescence polarization, protein titration LC3B without tween ([2]; Protein 25 µM): 233 and 224 and 191 and 192
Fluorescence polarization, protein titration LC3B with tween ([2]; Protein 50 µM): 16 and 30 and 20 and 21
Fluorescence polarization, protein titration LC3B without tween ([2]; Protein 50 µM): 207 and 200 and 195 and 162
Fluorescence polarization, displacement experiment LC3B ([2]; log Compound [M] -4.6031): 127.5 and 111.25
Fluorescence polarization, displacement experiment LC3B ([2]; log Compound [M] -5.05839): 100 and 118.75
Fluorescence polarization, displacement experiment LC3B ([2]; log Compound [M] -5.42608): 91.25 and 100.625
Fluorescence polarization, displacement experiment LC3B ([2]; log Compound [M] -5.727): 105 and 99.375
Fluorescence polarization, displacement experiment LC3B ([2]; log Compound [M] -6.20412): 76.875 and 78.125
Fluorescence polarization, displacement experiment LC3B ([2]; log Compound [M] -6.6031): 97.5 and 96.25
Fluorescence polarization, displacement experiment LC3B ([2]; log Compound [M] -7.05839): 95 and 98.75
Fluorescence polarization, displacement experiment LC3B ([2]; log Compound [M] -7.42608): 104.375 and 100
Fluorescence polarization, displacement experiment LC3B ([2]; log Compound [M] -7.727): 103.125 and 101.875
Fluorescence polarization, displacement experiment LC3B ([2]; log Compound [M] -8.20412): 91.25 and 75.625
Fluorescence polarization, displacement experiment LC3B ([2]; log Compound [M] -8.60189): 93.125 and 92.5
NanoBRET signal, tracer titration, LC3B ([3]; log tracer [M] -6.00109): 120.842 and 122.882 and 129.602 and 128.339
NanoBRET signal, tracer titration, LC3B ([3]; log tracer [M] -6.30155): 120.38 and 105.763 and 124.568 and 118.005
NanoBRET signal, tracer titration, LC3B ([3]; log tracer [M] -6.60241): 113.602 and 104.043 and 104.401 and 107.212
NanoBRET signal, tracer titration, LC3B ([3]; log tracer [M] -6.90309): 98.6453 and 100.848 and 108.512 and 103.133
NanoBRET signal, tracer titration, LC3B ([3]; log tracer [M] -7.30112): 89.1385 and 91.7873 and 88.9398 and 88.605
NanoBRET signal, tracer titration, LC3B ([3]; log tracer [M] -7.60206): 87.7818 and 86.5962 and 85.9928 and 88.5055
NanoBRET signal, tracer titration, LC3B ([3]; log tracer [M] -7.92154): 85.4561 and 91.534 and 90.0484 and 87.589
NanoBRET signal, tracer titration, LC3B ([3]; log tracer [M] -8.22214): 87.644 and 91.0185 and 90.3527 and 95.3228
NanoBRET signal, tracer titration, LC3B ([3]; log tracer [M] -8.52302): 88.7452 and 86.3664 and 89.605 and 108.381
NanoBRET signal, tracer titration, LC3B ([3]; log tracer [M] -8.82391): 86.7783 and 81.6186 and 84.8664 and 94.2613
NanoBRET signal, tracer titration, LC3B ([3]; log tracer [M] -9.00004): 83.8822 and 80.9003 and 85.0772 and 83.4655
NanoBRET signal, tracer titration, LC3A ([4]; log tracer [M] -6.00109): 124.819 and 118.345 and 124.774 and 114.881
NanoBRET signal, tracer titration, LC3A ([4]; log tracer [M] -6.30155): 112.067 and 104.028 and 114.067 and 103.426
NanoBRET signal, tracer titration, LC3A ([4]; log tracer [M] -6.60241): 103.182 and 101.845 and 103.925 and 98.4465
NanoBRET signal, tracer titration, LC3A ([4]; log tracer [M] -6.90309): 99.2084 and 97.2576 and 109.844 and 92.211
NanoBRET signal, tracer titration, LC3A ([4]; log tracer [M] -7.30112): 98.651 and 96.9847 and 99.2163 and 92.7664
NanoBRET signal, tracer titration, LC3A ([4]; log tracer [M] -7.60206): 97.6362 and 98.7001 and 95.2489 and 95.6855
NanoBRET signal, tracer titration, LC3A ([4]; log tracer [M] -7.92154): 98.1785 and 98.6876 and 96.8478 and 95.5754
NanoBRET signal, tracer titration, LC3A ([4]; log tracer [M] -8.22214): 94.3049 and 97.3658 and 91.0337 and 96.1748
NanoBRET signal, tracer titration, LC3A ([4]; log tracer [M] -8.52302): 97.3466 and 97.3205 and 85.6953 and 96.3749
NanoBRET signal, tracer titration, LC3A ([4]; log tracer [M] -8.82391): 89.2788 and 95.7646 and 83.5217 and 94.9158
NanoBRET signal, tracer titration, LC3A ([4]; log tracer [M] -9.00004): 83.6211 and 94.4654 and 83.1958 and 94.9397
